How the values were obtained:
[1] = Half life by its biological oxidation in presence of human liver microsomes; assay type: ADME, Microsome
[2] = Half life by its biological oxidation in presence of horse radish […]; assay type: ADME; settings: horseradish, horseradish peroxidase

half-life [1]	half-life [2]	Structure (SMILES)
< 1 min	1.33 min	Nc1sc2c(c1C(=O)c1ccc3ccccc3c1)CCCC2
< 1 min	< 1 min	Cc1sc(N)c(C(=O)c2cccc(C(F)(F)F)c2)c1C
< 1 min	< 1 min	Nc1sc2c(c1C(=O)c1ccc(-c3ccccc3)cc1)CCCC2
